Test results from the NIST ThermoML archive (doi:10.1021/je0302304).

Test: xn = mol fraction of the nth substance listed
Settings: 101.32 kPa, Liquid

COCCOCCOC [2,5,8-trioxanonane] + CCO
mass density [kg/m3]
Settings	288.15 K	298.15 K	308.15 K	318.15 K
x1 = 0.0045	795.6	787	778.4	769.6
x1 = 0.0085	797.1	788.6	779.9	771.1
x1 = 0.0125	798.7	790.1	781.5	772.6
x1 = 0.0165	800.3	791.7	783	774.1
x1 = 0.0205	801.8	793.2	784.4	775.6
x1 = 0.0305	805.5	796.9	788.1	779.2
x1 = 0.05	812.6	803.8	795	786
x1 = 0.1	828.7	819.7	810.7	801.5
x1 = 0.15	842.6	833.6	824.5	815.1
x1 = 0.2	855	845.8	836.5	827.1
x1 = 0.25	865.9	856.6	847.3	837.8
x1 = 0.3	875.7	866.3	856.9	847.3
x1 = 0.35	884.5	875	865.5	855.8
x1 = 0.4	892.4	882.9	873.2	863.5
x1 = 0.45	899.6	889.9	880.2	870.5
x1 = 0.4999	906	896.4	886.7	876.8
x1 = 0.55	912	902.3	892.5	882.6
x1 = 0.5999	917.4	907.7	897.8	887.9
x1 = 0.65	922.5	912.6	902.8	892.8
x1 = 0.6999	927.1	917.2	907.3	897.3
x1 = 0.7499	931.3	921.4	911.5	901.5
x1 = 0.7999	935.3	925.4	915.4	905.4
x1 = 0.8499	939	929	919.1	909
x1 = 0.8998	942.4	932.4	922.5	912.5
x1 = 0.9498	945.7	935.7	925.7	915.7
x1 = 1	948.6	938.7	928.7	918.6

COCCOC [1,2-dimethoxyethane] + CCO
mass density [kg/m3]
Settings	288.15 K	298.15 K	308.15 K	318.15 K
x1 = 0.0045	794.5	786	777.3	768.5
x1 = 0.0086	795.2	786.6	777.9	769
x1 = 0.0125	795.8	787.1	778.4	769.6
x1 = 0.0165	796.4	787.7	779	770.1
x1 = 0.0205	797	788.3	779.6	770.7
x1 = 0.0305	798.5	789.8	781	772
x1 = 0.05	801.3	792.5	783.6	774.6
x1 = 0.1	807.9	799	790	780.7
x1 = 0.15	814.2	805	795.8	786.3
x1 = 0.2	819.9	810.6	801.2	791.5
x1 = 0.25	825.2	815.7	806.1	796.3
x1 = 0.3	830.1	820.5	810.7	800.7
x1 = 0.35	834.6	824.9	815	804.8
x1 = 0.4	838.8	829	818.9	808.7
x1 = 0.45	842.7	832.8	822.6	812.2
x1 = 0.5	846.4	836.3	826	815.5
x1 = 0.55	849.8	839.6	829.2	818.6
x1 = 0.6	853	842.7	832.1	821.5
x1 = 0.6499	856	845.5	834.9	824.1
x1 = 0.7	858.7	848.2	837.5	826.6
x1 = 0.7499	861.3	850.7	839.9	829
x1 = 0.7999	863.7	853.1	842.2	831.2
x1 = 0.85	866.1	855.4	844.5	833.4
x1 = 0.9	868.3	857.5	846.6	835.4
x1 = 0.9499	870.4	859.5	848.5	837.3
x1 = 1	872.4	861.5	850.4	839.2

COCCOCCOCCOC [2,5,8,11-tetraoxadodecane] + CCO
mass density [kg/m3]
Settings	288.15 K	298.15 K	308.15 K	318.15 K
x1 = 0.0045	796.7	788.2	779.5	770.6
x1 = 0.0085	799.3	790.7	782	773.1
x1 = 0.0125	801.7	793.2	784.4	775.5
x1 = 0.0165	804.2	795.6	786.8	778
x1 = 0.0205	806.6	798	789.2	780.3
x1 = 0.0305	812.4	803.7	794.9	786
x1 = 0.05	823	814.2	805.4	796.4
x1 = 0.1	846.7	837.7	828.8	819.7
x1 = 0.15	866.4	857.3	848.3	839
x1 = 0.2	882.9	873.6	864.5	855.2
x1 = 0.25	896.9	887.7	878.6	869.2
x1 = 0.3	909.2	900	890.7	881.4
x1 = 0.35	919.8	910.5	901.3	891.9
x1 = 0.4	929.2	919.8	910.5	901.1
x1 = 0.4499	937.4	928	918.6	909.2
x1 = 0.5	944.8	935.3	925.9	916.4
x1 = 0.55	951.4	941.9	932.4	922.9
x1 = 0.6	957.3	947.7	938.3	928.8
x1 = 0.65	962.7	953.1	943.7	934.2
x1 = 0.7	967.5	958	948.6	939
x1 = 0.75	972	962.4	953	943.5
x1 = 0.7999	976.1	966.5	957.1	947.5
x1 = 0.8499	979.9	970.3	960.8	951.3
x1 = 0.8998	983.4	973.8	964.3	954.8
x1 = 0.9498	986.7	977.1	967.6	958.1
x1 = 1	989.7	980.1	970.7	961.1
